Results taken from PubChem BioAssay (NCI).
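Briefly, cells in 96-well plates were exposed to five compound concentrations for 48 h, and endpoints were estimated by linear interpolation. TGI: concentration producing complete growth inhibition.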

Assays:
Experiment in all cases: DTP human tumour cell line panel, 48 h
RPMI-8226 leukemia = tested on: RPMI-8226 leukemia
SK-OV-3 ovarian = tested on: SK-OV-3 ovarian
OVCAR-8 ovarian = tested on: OVCAR-8 ovarian
MCF7 breast = tested on: MCF7 breast
HCC-2998 colon = tested on: HCC-2998 colon
HCT-15 colon = tested on: HCT-15 colon
LOX IMVI melanoma = tested on: LOX IMVI melanoma
IGROV1 ovarian = tested on: IGROV1 ovarian
HS 578T breast = tested on: HS 578T breast
ACHN renal = tested on: ACHN renal
HOP-62 NSCLC = tested on: HOP-62 NSCLC
K-562 leukemia = tested on: K-562 leukemia
KM12 colon = tested on: KM12 colon
NCI-H460 lung = tested on: NCI-H460 lung
SW-620 colon = tested on: SW-620 colon
MALME-3M melanoma = tested on: MALME-3M melanoma
CCRF-CEM leukemia = tested on: CCRF-CEM leukemia
M14 melanoma = tested on: M14 melanoma
MOLT-4 leukemia = tested on: MOLT-4 leukemia
NCI-H23 lung = tested on: NCI-H23 lung
NCI/ADR-RES ovarian = tested on: NCI/ADR-RES ovarian
HCT-116 colon = tested on: HCT-116 colon
RXF 393 renal = tested on: RXF 393 renal
SF-268 CNS = tested on: SF-268 CNS
SR leukemia = tested on: SR leukemia
MDA-MB-435 = tested on: MDA-MB-435
SF-539 CNS = tested on: SF-539 CNS
A498 renal = tested on: A498 renal
SK-MEL-28 melanoma = tested on: SK-MEL-28 melanoma
UACC-257 melanoma = tested on: UACC-257 melanoma
U251 CNS = tested on: U251 CNS
OVCAR-5 ovarian = tested on: OVCAR-5 ovarian
HL-60(TB) leukemia = tested on: HL-60(TB) leukemia
HT29 colon = tested on: HT29 colon
UO-31 renal = tested on: UO-31 renal
786-0 renal = tested on: 786-0 renal
SK-MEL-5 melanoma = tested on: SK-MEL-5 melanoma
MDA-MB-231 breast = tested on: MDA-MB-231 breast
EKVX NSCLC = tested on: EKVX NSCLC
SF-295 CNS = tested on: SF-295 CNS
TK-10 renal = tested on: TK-10 renal
OVCAR-4 ovarian = tested on: OVCAR-4 ovarian
MDA-N = tested on: MDA-N
BT-549 breast = tested on: BT-549 breast
SK-MEL-2 melanoma = tested on: SK-MEL-2 melanoma
SNB-75 CNS = tested on: SNB-75 CNS
OVCAR-3 ovarian = tested on: OVCAR-3 ovarian
A549 NSCLC = tested on: A549 NSCLC
SN12C renal = tested on: SN12C renal
SNB-19 CNS = tested on: SNB-19 CNS
UACC-62 melanoma = tested on: UACC-62 melanoma
DU-145 prostate = tested on: DU-145 prostate
HOP-92 NSCLC = tested on: HOP-92 NSCLC
NCI-H522 lung = tested on: NCI-H522 lung
CAKI-1 renal = tested on: CAKI-1 renal
PC-3 prostate = tested on: PC-3 prostate
T-47D breast = tested on: T-47D breast
NCI-H226 lung = tested on: NCI-H226 lung
COLO 205 colon = tested on: COLO 205 colon

`S=C1Cc2cc3ccccc3nc2-c2ccccc2N1` was tested, and the TGI (RPMI-8226 leukemia) was greater than 100 µM, the TGI (SK-OV-3 ovarian) was 15.4 µM and the TGI (OVCAR-8 ovarian) was 31.2 µM. It also gave a TGI (MCF7 breast) greater than 79 µM, a TGI (HCC-2998 colon) of 36 µM and a TGI (HCT-15 colon) greater than 87.3 µM. The TGI (LOX IMVI melanoma) was greater than 69.8 µM, the TGI (IGROV1 ovarian) was 65.1 µM and the TGI (HS 578T breast) was greater than 63.7 µM. It also gave a TGI (ACHN renal) of 41.4 µM, a TGI (HOP-62 NSCLC) of 30.7 µM and a TGI (K-562 leukemia) greater than 100 µM. For the same compound, the TGI (KM12 colon) was greater than 100 µM, the TGI (NCI-H460 lung) was greater than 51.2 µM and the TGI (SW-620 colon) was greater than 70.4 µM. It also gave a TGI (MALME-3M melanoma) of 47.6 µM, a TGI (CCRF-CEM leukemia) greater than 100 µM and a TGI (M14 melanoma) greater than 64.2 µM. It also gave a TGI (MOLT-4 leukemia) greater than 100 µM, a TGI (NCI-H23 lung) of 41.6 µM and a TGI (NCI/ADR-RES ovarian) of 29 µM. The TGI (HCT-116 colon) was 30.8 µM, the TGI (RXF 393 renal) was 24.9 µM and the TGI (SF-268 CNS) was 91.6 µM. It also gave a TGI (SR leukemia) greater than 100 µM, a TGI (MDA-MB-435) greater than 68.2 µM and a TGI (SF-539 CNS) of 29.4 µM. The TGI (A498 renal) was 18.6 µM, the TGI (SK-MEL-28 melanoma) was greater than 59.1 µM and the TGI (UACC-257 melanoma) was 65.5 µM. It also gave a TGI (U251 CNS) of 28.3 µM, a TGI (OVCAR-5 ovarian) greater than 91.9 µM and a TGI (HL-60(TB) leukemia) greater than 100 µM. It also gave a TGI (HT29 colon) greater than 100 µM, a TGI (UO-31 renal) of 24.1 µM and a TGI (786-0 renal) of 28.4 µM. It also gave a TGI (SK-MEL-5 melanoma) greater than 100 µM, a TGI (MDA-MB-231 breast) of 27 µM and a TGI (EKVX NSCLC) of 79.2 µM. It also gave a TGI (SF-295 CNS) of 42.2 µM, a TGI (TK-10 renal) of 44.6 µM and a TGI (OVCAR-4 ovarian) greater than 40.4 µM. The TGI (MDA-N) was greater than 100 µM, the TGI (BT-549 breast) was greater than 59.1 µM and the TGI (SK-MEL-2 melanoma) was 61.8 µM. The TGI (SNB-75 CNS) was 17.5 µM, the TGI (OVCAR-3 ovarian) was 27.9 µM and the TGI (A549 NSCLC) was greater than 64.8 µM. For the same compound, the TGI (SN12C renal) was 32.6 µM, the TGI (SNB-19 CNS) was greater than 47.4 µM and the TGI (UACC-62 melanoma) was 25.7 µM. The TGI (DU-145 prostate) was greater than 100 µM, the TGI (HOP-92 NSCLC) was 20.2 µM and the TGI (NCI-H522 lung) was 43.1 µM. For the same compound, the TGI (CAKI-1 renal) was 54.5 µM, the TGI (PC-3 prostate) was 80.7 µM and the TGI (T-47D breast) was 28.7 µM. It also gave a TGI (NCI-H226 lung) of 46.9 µM and a TGI (COLO 205 colon) greater than 100 µM.

`N=C(N)CCNC(=O)C1CCC(N)=N1` (stereo not drawn) showed a TGI (RPMI-8226 leukemia) greater than 100 µM, a TGI (SK-OV-3 ovarian) greater than 69.3 µM and a TGI (OVCAR-8 ovarian) greater than 100 µM. For the same compound, the TGI (MCF7 breast) was greater than 100 µM, the TGI (HCC-2998 colon) was greater than 36.2 µM and the TGI (HCT-15 colon) was greater than 100 µM. For the same compound, the TGI (LOX IMVI melanoma) was greater than 100 µM, the TGI (IGROV1 ovarian) was greater than 100 µM and the TGI (HS 578T breast) was 65.5 µM. It also gave a TGI (ACHN renal) greater than 100 µM, a TGI (HOP-62 NSCLC) greater than 48.2 µM and a TGI (K-562 leukemia) greater than 100 µM. For the same compound, the TGI (KM12 colon) was greater than 100 µM, the TGI (NCI-H460 lung) was greater than 82.1 µM and the TGI (SW-620 colon) was greater than 100 µM. The TGI (MALME-3M melanoma) was greater than 61.6 µM, the TGI (CCRF-CEM leukemia) was greater than 80.5 µM and the TGI (M14 melanoma) was 98.1 µM. It also gave a TGI (MOLT-4 leukemia) greater than 78.8 µM, a TGI (NCI-H23 lung) greater than 93.3 µM and a TGI (NCI/ADR-RES ovarian) greater than 100 µM. It also gave a TGI (HCT-116 colon) greater than 91 µM, a TGI (RXF 393 renal) greater than 94.4 µM and a TGI (SF-268 CNS) greater than 93 µM. For the same compound, the TGI (SR leukemia) was greater than 100 µM, the TGI (MDA-MB-435) was greater than 100 µM and the TGI (SF-539 CNS) was greater than 43.2 µM. It also gave a TGI (A498 renal) of 85.9 µM, a TGI (SK-MEL-28 melanoma) greater than 100 µM and a TGI (UACC-257 melanoma) greater than 81.1 µM. For the same compound, the TGI (U251 CNS) was greater than 100 µM, the TGI (OVCAR-5 ovarian) was greater than 96.6 µM and the TGI (HL-60(TB) leukemia) was greater than 87.4 µM. It also gave a TGI (HT29 colon) greater than 84.5 µM, a TGI (UO-31 renal) greater than 80.1 µM and a TGI (786-0 renal) greater than 95.7 µM. It also gave a TGI (SK-MEL-5 melanoma) greater than 61.9 µM, a TGI (MDA-MB-231 breast) greater than 79.3 µM and a TGI (EKVX NSCLC) greater than 89.7 µM. The TGI (SF-295 CNS) was greater than 86.2 µM, the TGI (TK-10 renal) was greater than 90.4 µM and the TGI (OVCAR-4 ovarian) was 81.3 µM. The TGI (MDA-N) was greater than 100 µM, the TGI (BT-549 breast) was greater than 100 µM and the TGI (SK-MEL-2 melanoma) was greater than 78.7 µM. It also gave a TGI (SNB-75 CNS) of 60.4 µM, a TGI (OVCAR-3 ovarian) greater than 41.9 µM and a TGI (A549 NSCLC) greater than 61.2 µM. The TGI (SN12C renal) was 68.3 µM, the TGI (SNB-19 CNS) was greater than 100 µM and the TGI (UACC-62 melanoma) was greater than 100 µM. For the same compound, the TGI (DU-145 prostate) was greater than 65.6 µM, the TGI (HOP-92 NSCLC) was greater than 67.8 µM and the TGI (NCI-H522 lung) was greater than 92.9 µM. It also gave a TGI (CAKI-1 renal) greater than 100 µM, a TGI (PC-3 prostate) greater than 64.6 µM and a TGI (T-47D breast) greater than 59.7 µM. For the same compound, the TGI (NCI-H226 lung) was greater than 63.8 µM and the TGI (COLO 205 colon) was greater than 59 µM.
